System: Male Wistar rats
Test: Enteropooling effect (intestinal fluid volume) in fasted rats
Assay type: in vivo, rat
Details: intestinal fluid volume 30 min after administration, dose yielding a 50% increase relative to vehicle control; for ED50: Rattus norvegicus, 0.5 h
Procedure: Male Wistar rats (Crj Wistar Rat, body weight: 180-200 g) were used. Animals were fasted for 24 hours with free access to water. 5 mL/kg of distilled water containing the compound 5, PGE1 or PGE2 was orally administrated (p.o.), or 2 mL/kg of physiological saline containing the compound 5 was injected intravenously (i.v.) to the animals. Thirty minutes after the administration, the animals were euthanized by cervical dislocation, and the abdominal cavity was opened surgically. The intestinal fluid was collected and its volume was measured. The dose of test substance yielding a 50% increase in intestinal fluid volume relative to the control group, which was received the vehicle only, was defined as the ED50 value.

| Compound | Enteropooling ED50 (p.o. in distilled water) | ED50 (iv, i.v. in physiological saline) | ED50 (po, p.o. in distilled water) |
| --- | --- | --- | --- |
| CCCCC[C@H](O)/C=C/[C@H]1[C@H](O)CC(=O)[C@@H]1C/C=C\CCCC(=O)O [PGE2] | 130 µg/kg |  |  |
| CCCCC(F)(F)C(O)CC[C@H]1[C@H](O)CC(=O)[C@@H]1CCCCCCC(=O)O (stereo partly shown) [Compound 5, 13,14-dihydro-15RS-hydroxy-16,16-difluoro-PGE1] |  | 0.88 µg/kg | 0.6 µg/kg |
| CCCCC[C@H](O)/C=C/[C@H]1[C@H](O)CC(=O)[C@@H]1CCCCCCC(=O)O [PGE1] | 420 µg/kg |  |  |
